Data taken from the NIST ThermoML archive (doi:10.1016/j.jct.2005.03.002).

Assay: xn = mol fraction of the nth substance listed
Conditions: 101.33 kPa, Liquid

CCOS(=O)(=O)[O-].CCn1cc[n+](C)c1 [1-ethyl-3-methylimidazolium ethyl sulfate] + O
mass density [kg/m3]
Conditions | 278.2 K | 288.2 K | 298.2 K | 308.2 K | 318.2 K | 328.2 K | 338.2 K
x2 = 0 | 1243 | 1236.2 | 1229.6 | 1223 | 1216.2 | 1209.9 | 1203.7
x2 = 0.0503 | 1242.6 | 1235.5 | 1229 | 1222.6 | 1216.2 | 1209.8 | 1203.6
x2 = 0.0983 | 1241.6 | 1234.7 | 1227.9 | 1221.6 | 1215.1 | 1208.6 | 1202.5
x2 = 0.1495 | 1240.2 | 1233.5 | 1226.9 | 1220.5 | 1213.9 | 1207.5 | 1201.2
x2 = 0.1996 | 1239.2 | 1232.7 | 1226.2 | 1219.5 | 1213 | 1206.6 | 1200.1
x2 = 0.2505 | 1238.3 | 1231.1 | 1224.7 | 1218.3 | 1211.7 | 1205.3 | 1198.7
x2 = 0.2999 | 1236.7 | 1229.8 | 1223.1 | 1216.6 | 1210.1 | 1203.8 | 1198
x2 = 0.3504 | 1235.6 | 1228.5 | 1221.8 | 1215.3 | 1208.7 | 1202.4 | 1196.1
x2 = 0.3987 | 1233.4 | 1226.6 | 1220.1 | 1213.4 | 1206.8 | 1200.3 | 1194.3
x2 = 0.4505 | 1231.1 | 1224.4 | 1218 | 1211.2 | 1204.6 | 1198.6 | 1192.2
x2 = 0.4994 | 1228.7 | 1222 | 1215.4 | 1208.8 | 1202.2 | 1196.2 | 1189.9
x2 = 0.5495 | 1225.8 | 1219.1 | 1212.3 | 1205.8 | 1199.4 | 1193 | 1186.8
x2 = 0.6 | 1222.1 | 1215.3 | 1208.7 | 1202 | 1195.6 | 1189.2 | 1183
x2 = 0.6504 | 1217.2 | 1210.7 | 1203.8 | 1197.4 | 1190.8 | 1184.4 | 1178
x2 = 0.6999 | 1211.5 | 1204.7 | 1198.3 | 1191.5 | 1184.7 | 1178.2 | 1171.8
x2 = 0.7502 | 1203.2 | 1196.8 | 1190 | 1183.3 | 1176.6 | 1170 | 1163.8
x2 = 0.8 | 1192.4 | 1185.7 | 1178.9 | 1172.4 | 1165.6 | 1159.1 | 1153.1
x2 = 0.8499 | 1176.4 | 1169.9 | 1163.4 | 1156.8 | 1150 | 1143.9 | 1137.8
x2 = 0.9 | 1149.2 | 1142.9 | 1136.6 | 1130.3 | 1124.4 | 1117.8 | 1112.4
x2 = 0.94 | 1107.2 | 1101.8 | 1096.4 | 1090.8 | – | – | –
